Test results as given in the NIST ThermoML archive (doi:10.1021/je060271a).
Numbers after ± are expanded uncertainties.

Conditions: 303.16 K, Liquid, Vibrating tube method

SMILES: CCCC(=O)OCC(COC(=O)CCC)(COC(=O)CCC)COC(=O)CCC [pentaerythritol tetrabutyrate]
- mass density (28457 kPa): 1059.5 ± 1.3 kg/m3
- mass density (28504 kPa): 1059.6 ± 1.3 kg/m3
- mass density (28542 kPa): 1059.7 ± 1.3 kg/m3
- mass density (28589 kPa): 1059.8 ± 1.3 kg/m3
- mass density (28636 kPa): 1059.7 ± 1.3 kg/m3
- mass density (28675 kPa): 1059.8 ± 1.3 kg/m3
- mass density (28723 kPa): 1059.9 ± 1.3 kg/m3
- mass density (28762 kPa): 1059.7 ± 1.3 kg/m3
- mass density (28808 kPa): 1059.8 ± 1.3 kg/m3
- mass density (28856 kPa): 1059.8 ± 1.3 kg/m3
- mass density (28896 kPa): 1060 ± 1.3 kg/m3
- mass density (28944 kPa): 1059.8 ± 1.3 kg/m3
- mass density (28991 kPa): 1060 ± 1.3 kg/m3
- mass density (29031 kPa): 1060 ± 1.3 kg/m3
- mass density (29080 kPa): 1060 ± 1.3 kg/m3
- mass density (29121 kPa): 1060 ± 1.3 kg/m3
- mass density (29170 kPa): 1060.1 ± 1.3 kg/m3
- mass density (29212 kPa): 1060 ± 1.3 kg/m3
- mass density (29261 kPa): 1060.1 ± 1.3 kg/m3
- mass density (29301 kPa): 1060 ± 1.3 kg/m3
- mass density (29349 kPa): 1060 ± 1.3 kg/m3
- mass density (29397 kPa): 1060.1 ± 1.3 kg/m3
- mass density (29435 kPa): 1060 ± 1.3 kg/m3
- mass density (29481 kPa): 1060.1 ± 1.3 kg/m3
- mass density (29515 kPa): 1060.2 ± 1.3 kg/m3
- mass density (29583 kPa): 1060.3 ± 1.3 kg/m3
- mass density (29644 kPa): 1060.2 ± 1.3 kg/m3
- mass density (29675 kPa): 1060.3 ± 1.3 kg/m3
- mass density (29772 kPa): 1060.4 ± 1.3 kg/m3
- mass density (29848 kPa): 1060.4 ± 1.3 kg/m3
- mass density (29885 kPa): 1060.5 ± 1.3 kg/m3
- mass density (29968 kPa): 1060.4 ± 1.3 kg/m3
- mass density (30045 kPa): 1060.6 ± 1.3 kg/m3
- mass density (30080 kPa): 1060.5 ± 1.3 kg/m3
- mass density (30163 kPa): 1060.5 ± 1.3 kg/m3
- mass density (30239 kPa): 1060.6 ± 1.3 kg/m3
- mass density (30274 kPa): 1060.8 ± 1.3 kg/m3
- mass density (30309 kPa): 1060.5 ± 1.3 kg/m3
- mass density (30339 kPa): 1060.8 ± 1.3 kg/m3
- mass density (30375 kPa): 1060.8 ± 1.3 kg/m3
- mass density (30405 kPa): 1060.6 ± 1.3 kg/m3
- mass density (30441 kPa): 1060.8 ± 1.3 kg/m3
- mass density (30478 kPa): 1060.7 ± 1.3 kg/m3
- mass density (30509 kPa): 1060.8 ± 1.3 kg/m3
- mass density (30539 kPa): 1060.8 ± 1.3 kg/m3
- mass density (30576 kPa): 1060.9 ± 1.3 kg/m3
- mass density (30606 kPa): 1060.9 ± 1.3 kg/m3
- mass density (30642 kPa): 1060.7 ± 1.3 kg/m3
- mass density (30679 kPa): 1060.9 ± 1.3 kg/m3
- mass density (30710 kPa): 1060.8 ± 1.3 kg/m3
- mass density (30746 kPa): 1060.9 ± 1.3 kg/m3
- mass density (30777 kPa): 1061.1 ± 1.3 kg/m3
- mass density (30814 kPa): 1061 ± 1.3 kg/m3
- mass density (30850 kPa): 1060.9 ± 1.3 kg/m3
- mass density (30882 kPa): 1061 ± 1.3 kg/m3
- mass density (30919 kPa): 1061 ± 1.3 kg/m3
- mass density (30951 kPa): 1061 ± 1.3 kg/m3
- mass density (30989 kPa): 1061.1 ± 1.3 kg/m3
- mass density (31020 kPa): 1061 ± 1.3 kg/m3
- mass density (31057 kPa): 1061.1 ± 1.3 kg/m3
- mass density (31094 kPa): 1061.3 ± 1.3 kg/m3
- mass density (31126 kPa): 1061.1 ± 1.3 kg/m3
- mass density (31164 kPa): 1061.1 ± 1.3 kg/m3
- mass density (31196 kPa): 1061.1 ± 1.3 kg/m3
- mass density (31233 kPa): 1061.1 ± 1.3 kg/m3
- mass density (31271 kPa): 1061.2 ± 1.3 kg/m3
- mass density (31303 kPa): 1061.3 ± 1.3 kg/m3
- mass density (31342 kPa): 1061.2 ± 1.3 kg/m3
- mass density (31375 kPa): 1061.3 ± 1.3 kg/m3
- mass density (31414 kPa): 1061.3 ± 1.3 kg/m3
- mass density (31446 kPa): 1061.3 ± 1.3 kg/m3
- mass density (31485 kPa): 1061.2 ± 1.3 kg/m3
- mass density (31517 kPa): 1061.2 ± 1.3 kg/m3
- mass density (31555 kPa): 1061.3 ± 1.3 kg/m3
- mass density (31595 kPa): 1061.4 ± 1.3 kg/m3
- mass density (31627 kPa): 1061.4 ± 1.3 kg/m3
- mass density (31667 kPa): 1061.4 ± 1.3 kg/m3
- mass density (31700 kPa): 1061.5 ± 1.3 kg/m3
- mass density (31738 kPa): 1061.4 ± 1.3 kg/m3
- mass density (31778 kPa): 1061.5 ± 1.3 kg/m3
- mass density (31811 kPa): 1061.5 ± 1.3 kg/m3
- mass density (31851 kPa): 1061.5 ± 1.3 kg/m3
- mass density (31883 kPa): 1061.5 ± 1.3 kg/m3
- mass density (31922 kPa): 1061.6 ± 1.3 kg/m3
- mass density (31960 kPa): 1061.6 ± 1.3 kg/m3
- mass density (31999 kPa): 1061.6 ± 1.3 kg/m3
- mass density (32038 kPa): 1061.6 ± 1.3 kg/m3
- mass density (32076 kPa): 1061.5 ± 1.3 kg/m3
- mass density (32115 kPa): 1061.7 ± 1.3 kg/m3
- mass density (32148 kPa): 1061.9 ± 1.3 kg/m3
- mass density (32187 kPa): 1061.8 ± 1.3 kg/m3
- mass density (32227 kPa): 1061.7 ± 1.3 kg/m3
- mass density (32266 kPa): 1061.9 ± 1.3 kg/m3
- mass density (32299 kPa): 1061.7 ± 1.3 kg/m3
- mass density (32339 kPa): 1061.8 ± 1.3 kg/m3
- mass density (32380 kPa): 1061.8 ± 1.3 kg/m3
- mass density (32419 kPa): 1061.8 ± 1.3 kg/m3
- mass density (32452 kPa): 1061.8 ± 1.3 kg/m3
- mass density (32491 kPa): 1062 ± 1.3 kg/m3
- mass density (32532 kPa): 1061.9 ± 1.3 kg/m3
- mass density (32572 kPa): 1061.8 ± 1.3 kg/m3
- mass density (32612 kPa): 1061.9 ± 1.3 kg/m3
- mass density (32652 kPa): 1062 ± 1.3 kg/m3
- mass density (32693 kPa): 1061.8 ± 1.3 kg/m3
- mass density (32727 kPa): 1062 ± 1.3 kg/m3
- mass density (32768 kPa): 1062 ± 1.3 kg/m3
- mass density (32809 kPa): 1062.1 ± 1.3 kg/m3
- mass density (32850 kPa): 1062 ± 1.3 kg/m3
- mass density (32891 kPa): 1062.2 ± 1.3 kg/m3
- mass density (33091 kPa): 1062.2 ± 1.3 kg/m3
- mass density (33133 kPa): 1062.2 ± 1.3 kg/m3
- mass density (33168 kPa): 1062.2 ± 1.3 kg/m3
- mass density (33210 kPa): 1062.2 ± 1.3 kg/m3
- mass density (33253 kPa): 1062.4 ± 1.3 kg/m3
- mass density (33296 kPa): 1062.3 ± 1.3 kg/m3
- mass density (33340 kPa): 1062.3 ± 1.3 kg/m3
- mass density (33377 kPa): 1062.2 ± 1.3 kg/m3
- mass density (33421 kPa): 1062.4 ± 1.3 kg/m3
- mass density (33456 kPa): 1062.4 ± 1.3 kg/m3
- mass density (33499 kPa): 1062.4 ± 1.3 kg/m3
- mass density (33542 kPa): 1062.4 ± 1.3 kg/m3
- mass density (33586 kPa): 1062.6 ± 1.3 kg/m3
- mass density (33622 kPa): 1062.5 ± 1.3 kg/m3
- mass density (33666 kPa): 1062.6 ± 1.3 kg/m3
- mass density (33710 kPa): 1062.5 ± 1.3 kg/m3
- mass density (33753 kPa): 1062.5 ± 1.3 kg/m3
- mass density (33797 kPa): 1062.6 ± 1.3 kg/m3
- mass density (33834 kPa): 1062.6 ± 1.3 kg/m3
- mass density (33881 kPa): 1062.7 ± 1.3 kg/m3
- mass density (33925 kPa): 1062.7 ± 1.3 kg/m3
- mass density (33963 kPa): 1062.8 ± 1.3 kg/m3
- mass density (34008 kPa): 1062.7 ± 1.3 kg/m3
- mass density (34052 kPa): 1062.7 ± 1.3 kg/m3
- mass density (34098 kPa): 1062.8 ± 1.3 kg/m3
- mass density (34136 kPa): 1062.8 ± 1.3 kg/m3
- mass density (34182 kPa): 1062.8 ± 1.3 kg/m3
- mass density (34228 kPa): 1062.7 ± 1.3 kg/m3
- mass density (34275 kPa): 1062.9 ± 1.3 kg/m3
- mass density (34322 kPa): 1062.9 ± 1.3 kg/m3
- mass density (34370 kPa): 1063 ± 1.3 kg/m3
- mass density (34411 kPa): 1063.1 ± 1.3 kg/m3
- mass density (34462 kPa): 1063 ± 1.3 kg/m3
- mass density (34514 kPa): 1063.1 ± 1.3 kg/m3
- mass density (34558 kPa): 1062.9 ± 1.3 kg/m3
- mass density (34613 kPa): 1063 ± 1.3 kg/m3
- mass density (34844 kPa): 1063.3 ± 1.3 kg/m3
